Assay results reported in PubChem BioAssay AID1996.
In brackets after ≈: the same amount, converted by molar mass.

Details: buffer; pH 7.4; 200.0 µM

SMILES | solubility kinetic [µg/mL]
O=C(CCCCC(=O)Nc1c(I)cc(I)c(C(=O)O)c1I)Nc1c(I)cc(I)c(C(=O)O)c1I | > 171
CCNC(=O)c1c(O)c2c([nH]c1=O)CCCC2 | 3 (≈ 12.7 µM)
Cc1cccn2cc(-c3ccc4c(c3)NC(=O)CO4)nc12 | 7.9 (≈ 28.3 µM)
Cc1cccc2c(=O)cc(C(F)(F)F)[nH]c12 | > 34.1
Cc1ccc(C2N3CCCN23)cc1 (stereo not drawn) | > 26.1
CCc1nonc1NC(=O)c1oc2ccc(Cl)cc2c1C | < 0.2
Cc1ccc(C(=O)Nc2ccc(Cl)cc2C)c(Cl)c1 | < 0.6
Cn1c(N)c(C(=O)COC(=O)Cc2cccc(C(F)(F)F)c2)c(=O)n(C)c1=O | 53.2 (≈ 133 µM)
CCOc1ccc(Cc2onc3c2C(=O)CC(C)(C)C3)cc1OCC | 32.6 (≈ 94.9 µM)
CCC1(C)Cc2ccccc2-c2[nH]c(=S)[nH]c(=O)c21 (stereo not drawn) | 22.1 (≈ 81.1 µM)
Cc1ccc(C2SCC(=O)N2c2ccccc2)cc1 (stereo not drawn) | > 40.4
COc1ccccc1Sc1nc(-c2ccccc2)ncc1OC | 1.1 (≈ 3.39 µM)
FC(F)(F)c1cccnc1Oc1ccc(C2=NCCS2)cc1 | 0.6 (≈ 1.85 µM)
OCc1c[nH]c2ccccc12 | 7 (≈ 47.6 µM)
CC(NC(=O)c1ccc(S(=O)(=O)C(F)F)cc1)c1ccccc1 (stereo not drawn) | > 50.9
CCOc1c(C)cc(S(=O)(=O)NCc2ccccn2)c(C)c1C | > 50.2
O=C(Nc1ccc(Cl)cn1)c1ccc2[nH]c(=O)c(=O)[nH]c2c1 | 11.7 (≈ 36.9 µM)
Cc1ccc(N=C2NC(=O)/C(=C/c3cccn3C)S2)cc1C | 0.9 (≈ 2.89 µM)
Cc1noc(C)c1COc1cccc(C(=O)OC(C)C#N)c1 (stereo not drawn) | 43.2 (≈ 144 µM)
CS(=O)(=O)c1ccc2nc(NC(=O)c3ccc(N4C(=O)CCC4=O)cc3)sc2c1 | 0.3 (≈ 0.699 µM)
CC(=O)COC(=O)c1ccc2noc(-c3ccccc3)c2c1 | 8 (≈ 27.1 µM)
Cn1cc(S(=O)(=O)NCc2ccc3c(c2)OCO3)c(C(F)(F)F)n1 | > 54.5
Oc1ccc(Cl)cc1CNc1ccccn1 | 6.5 (≈ 27.7 µM)
CC(NC(=O)c1c(O)c2ccccc2n(C)c1=O)c1ccccc1 (stereo not drawn) | < 0.3
Cc1ccc2nc(SCC(=O)Nc3nonc3N)[nH]c2c1 | 39 (≈ 128 µM)

SMILES | solubility kinetic [µg/mL]
Cc1cc(NC(=O)Cc2cc(F)cc(F)c2)no1 | 7.5 (≈ 29.7 µM)
COC(=O)c1ccc2c(=O)n(-c3ccccc3F)c(=S)[nH]c2c1 | 1 (≈ 3.03 µM)
COc1cc2c(cc1OC)C(C)N(S(=O)(=O)c1cn(C)c(C)n1)CC2 (stereo not drawn) | > 54.8
Cc1ccnc(NC(=O)Cc2ccc(-c3ccccc3)cc2)c1 | 4.3 (≈ 14.2 µM)
COc1ccccc1CC(=O)N(Cc1ccccc1)c1cccc(C)c1 | 8.9 (≈ 25.8 µM)
CCOC(=O)CCn1cc(F)c(=O)[nH]c1=O | > 34.5
Nc1sc2c(c1C(=O)NC1CC1)CCCC2 | 31 (≈ 131 µM)
CC(=O)ONC(=Nc1ccccc1)c1nonc1N | > 39.2
Cc1ccccc1-c1ccc(/C=C2/SC(N3CCOCC3)=NC2=O)o1 | 1.4 (≈ 3.95 µM)
Cc1ccc(C(=O)C(C)OC(=O)Cc2c[nH]c3ccccc23)cc1 (stereo not drawn) | 7.2 (≈ 22.4 µM)
O=S(=O)(c1ccc(F)cc1)N1CN2CCN(C2)C1 | > 40.7
Cl.Clc1ccc(NCc2ccsc2)cc1 | 2.7
COc1cc2c3c(c1)C(C)CC(C)(C)N3C(=O)C2=O (stereo not drawn) | 36.2 (≈ 140 µM)
O=C(NC1CCCC1)c1cc(-c2cccc(Cl)c2)on1 | 1.5 (≈ 5.16 µM)
CSc1ccc(CN(C)C(=O)C(c2ccccc2)c2ccccc2)cc1 | 7.7 (≈ 21.3 µM)
Cc1ccc2nsnc2c1NC(=O)c1ccc([N+](=O)[O-])o1 | > 45.6
O=C(Nc1c(-c2cccs2)nc2ccccn12)c1ccccc1F | 47.1 (≈ 140 µM)
O=C(COC(=O)c1cccnc1Cl)c1ccc(Cl)s1 | > 47.4
O=C(c1ccccc1)N(Cc1ccccc1)Cc1ccccc1 | 0.8 (≈ 2.65 µM)
Fc1ccc2nc(N3CCOCC3)sc2c1 | > 35.7
CC(=O)c1c(C)[nH]c(C(=O)Nc2ccc(C)cc2Br)c1C | 0.8 (≈ 2.29 µM)
COc1ccc(N2CCN(CCc3ccncc3)CC2)cc1 | > 44.6
c1ccc(OCCCn2ccnc2)cc1 | 25.1 (≈ 124 µM)
O=C1C(=O)N(CC2COc3ccccc3O2)c2ccccc21 (stereo not drawn) | 40.6 (≈ 137 µM)

The next lines start with the values.

solubility kinetic [µg/mL] | SMILES
> 38.7 | O=C(Cc1c(F)cccc1Cl)N1CCOCC1
> 40.4 | CN(C)/C=C/C(=O)c1ccc(Oc2ncccn2)cc1
10.5 (≈ 33.8 µM) | O=C(Nc1cc2c3c(c1)CC(=O)N3CCC2)c1cccc(F)c1
6.3 (≈ 19.4 µM) | CCOc1ccc(-n2c(C)c(C(=O)O)c3cc(OC)ccc32)cc1
> 40.9 | COc1cccc(NC(=S)NCc2ccccc2)c1
53.5 (≈ 133 µM) | CCOC(=O)C1=C(CN2CCCCCC2)NC(=O)NC1c1ccc2c(c1)OCO2 (stereo not drawn)
> 50.5 | O=C(O)c1ccc(/C=N/NC(=S)NCCN2CCOCC2)cc1
29.9 (≈ 122 µM) | COc1ccc(CNc2cc(C)ccn2)c(O)c1
3.2 (≈ 9.83 µM) | Cn1c(SCC(=O)Nc2ccccc2)nc2ccccc2c1=O
18.1 (≈ 69.8 µM) | Cc1ccc(NCCC(=O)c2cccs2)cc1C
5.3 (≈ 15.6 µM) | CCCCNC(=O)c1ccc2c(c1)N(C)C(=O)c1ccccc1S2
> 42.9 | Cc1noc(C)c1COC(=O)COc1ccc(C#N)cc1
7.4 (≈ 23.4 µM) | C=CCOC(=O)C1=C(C)NC(=O)NC1c1ccc(OCC)cc1 (stereo not drawn)
50.1 (≈ 144 µM) | O=C(COC(=O)c1cccnc1Cl)NC12CC3CC(CC(C3)C1)C2
> 47.9 | Cl.O=C(COc1ccc(Cl)cc1)NCCN1CCCC1
> 41.4 | O=C(O)c1ccccc1C(=O)NC1CCCCNC1=O (stereo not drawn)
< 0.4 | O=C(c1cccs1)N1CCN=C1SCc1ccc(Cl)cc1
> 50.5 | NS(=O)(=O)c1ccc(NC(=O)C2C3C=CC(C3)C2C(=O)O)cc1 (stereo not drawn)
> 57.8 | O=C(COC(=O)c1ccc[n+]([O-])c1)Nc1ccc([N+](=O)[O-])cc1C(F)(F)F
45.7 (≈ 133 µM) | CCOc1ccccc1N1CC(C(=O)NC2CCCCCC2)CC1=O (stereo not drawn)
48.3 (≈ 140 µM) | CC(=O)c1ccc(NS(=O)(=O)c2ccc3c(c2)CCC(=O)N3)cc1
> 52.9 | COCCN1C(=O)C(=O)/C(=C(/O)c2ccc(C)cc2)C1c1ccccn1 (stereo not drawn)
12.7 (≈ 36.4 µM) | CC(=O)Nc1ccc(NC(=O)CSCc2ccccc2Cl)cc1

solubility kinetic [µg/mL] | SMILES
> 52.6 | CCC(=O)N1c2ccccc2C(N(C(=O)CC)c2ccccc2)CC1C (stereo not drawn)
1.1 (≈ 3.44 µM) | O=C(CSc1ccc(F)cc1)NC12CC3CC(CC(C3)C1)C2
43 (≈ 136 µM) | CCc1cc(C(=O)N2CCN(c3ccccn3)CC2)sc1C
39.1 (≈ 145 µM) | O=C(c1cc(-c2ccccc2)on1)N1CCCCCC1
> 48.7 | Cc1[nH]c2ccccc2c1/C=N/NC(=O)CNC(=O)c1ccco1
46.4 (≈ 135 µM) | O=C(NC1CCC(O)CC1)c1ccccc1OCc1ccc(F)cc1 (stereo not drawn)
25.1 (≈ 60.3 µM) | Cc1ccc(S(=O)(=O)N2CCOCC2)cc1C(=O)NC(C)CCc1ccccc1 (stereo not drawn)
0.6 (≈ 1.8 µM) | CCN(CC)c1ccc(NC(=O)Nc2cccc3ccccc23)cc1
3.7 (≈ 10.1 µM) | COc1ccc(/C=C/C(=O)OCC(=O)NC(C)CCc2ccccc2)cc1 (stereo not drawn)
11.1 (≈ 31.6 µM) | CCOC(=O)CNC(=O)CSc1nc(-c2ccc(C)cc2)ns1
28.1 (≈ 87.7 µM) | O=C(O)CCC(=O)N1CCN(Cc2ccc3c(c2)OCO3)CC1
0.4 (≈ 1.24 µM) | CN(CC(=O)Nc1ccc(Cl)cc1)C(=O)CCC1CCCC1
21.1 (≈ 68.4 µM) | O=C(Nc1cccc(C(=O)NC2CCCC2)c1)c1ccccc1
2.2 (≈ 6.66 µM) | CCc1cc(C(=O)Nc2ccccc2N2CCOCC2)sc1C
> 36.5 | COC(=O)c1cc(C(=O)Cc2ccccc2)c[nH]1
58.9 (≈ 149 µM) | O=C(c1cccc(S(=O)(=O)Nc2ccc(Br)cc2)c1)N1CCC1
30.9 (≈ 106 µM) | CC(C)(C)NC(=O)CSc1nc2ccccc2c(=O)[nH]1
6.2 (≈ 14.8 µM) | Cc1nc2ccc(NC(=O)c3cccc(S(=O)(=O)N4CCOCC4)c3)cc2s1
2.9 (≈ 11.3 µM) | CN(c1nc2ccccc2[nH]c1=O)C1CCCCC1
47 (≈ 121 µM) | CN(C)S(=O)(=O)c1cccc(C(=O)Nc2ccccc2C(=O)NC2CC2)c1
> 52.3 | COc1cccc(NC(=O)COC(=O)CNC(=O)C2CCCCC2)c1
18.6 (≈ 55.2 µM) | CSc1ncc(Cl)c(C(=O)Nc2ccc(NC(C)=O)cc2)n1
5.3 (≈ 13.4 µM) | O=C(NCC1CCCO1)c1ccc(NC(=O)c2cc(F)c(F)cc2Cl)cc1 (stereo not drawn)

solubility kinetic [µg/mL] | SMILES
49 (≈ 147 µM) | COc1ccc(NC(=O)CN(C)CC(=O)N2CCCCCC2)cc1
> 50 | CC(C)NC(=O)NNC(=O)c1nn(-c2ccc(F)cc2)ccc1=O
43.1 (≈ 118 µM) | COCCSc1ccccc1C(=O)Nc1ccc(Br)cc1
> 47.9 | COc1ccc2nc(SCC(=O)NC3CCCCC3)[nH]c2c1
> 49.9 | CC(C)CNC(=O)COCc1cc(-c2ccc3c(c2)OCO3)on1
45.4 (≈ 138 µM) | CC(C)c1ccc(CNC(=O)C(=O)NCCCn2ccnc2)cc1
5 (≈ 14.9 µM) | O=C(COC(=O)/C=C/c1cccc(F)c1)Nc1ccc(Cl)cn1
0.9 (≈ 3.01 µM) | COC(=O)Nc1nc2ccc(Sc3ccccc3)cc2[nH]1
> 46.9 | CC(OC(=O)C1=COCCO1)C(=O)Nc1ccc(Cl)cn1 (stereo not drawn)
> 44.1 | COc1cccc(/C=N/NC(=O)c2ccc3nc[nH]c3c2)c1
6.3 (≈ 22.3 µM) | CCC(C)NC(=O)CN1C(=O)c2cccc3cccc1c23 (stereo not drawn)
> 45.2 | CC1(C)CCC(=O)N(c2ccc(OC(F)(F)F)cc2)C1=O
10.7 (≈ 29.2 µM) | COc1ccc(NC(=O)c2ccc(S(=O)(=O)N3CCOCC3)o2)cc1
40.2 (≈ 116 µM) | CC(NC(=O)COC(=O)COc1ccc(Cl)cc1)c1ccccc1 (stereo not drawn)
1.2 (≈ 3.24 µM) | CCOC(=O)c1ccc(NC(=S)N2CCN(c3ccccn3)CC2)cc1
> 53.3 | C=CCc1ccccc1OCC(O)CNC(=O)c1ccccc1C(=O)O (stereo not drawn)
12.2 (≈ 33 µM) | O=Cc1cc([N+](=O)[O-])ccc1N1CCN(Cc2ccc3c(c2)OCO3)CC1
> 40.3 | CC(=O)N1CCN=C1SCc1cccc(Cl)c1
> 59.6 | COc1cccc(COC(=O)C2CCN(C(=O)c3ccccc3C)CC2)c1OC
29.3 (≈ 94.4 µM) | CCOC(=O)CSc1[nH]c2cc(OC)ccc2c1[N+](=O)[O-]
4.3 (≈ 12.9 µM) | Cc1oc(S(=O)(=O)N2CCCC2)cc1C(=O)Nc1ccccc1
27.2 (≈ 86.2 µM) | COc1ccc(-c2noc(CCC(=O)NC3CCCC3)n2)cc1
< 0.7 | O=C(COc1ccc(Cl)cc1Cl)NC(=O)c1ccccc1
